For test [1], the system named is B. microti. The note with it: B. microti in vivo; cited from earlier work.
In test [2] the test system is B. bovis. The experiment in a line: In vitro growth inhibition, Babesia fluorescent (SYBR Green I) assay. In kind it is cell-based. The note with it: Bos taurus, 96 h, 4 days culture, mean of triplicate experiments. As to the method: (§1) Babesia parasite was incubated and maintained at 37 °C in a humidifying chamber under 5% CO2, 5% O2, and 90% N2 atmosphere using a microaerophilic stationary-phase culture for conducting the in vitro experiment. Briefly, Germany strain Babesia divergens was cultured in cattle RBCs in Roswell Park Memorial Institute 1640 (RPMI 1640; Sigma-Aldrich, St. Louis, MO, USA) medium replenished with 40% cattle serum, while culture medium 199 (M199; Sigma-Aldrich) was utilized for the Argentina strain B. bigemina and Texas strain B. bovis, and T. equi USDA strain cultured in cattle RBCs supplemented with 40% cattle serum and horse RBCs maintained in hypoxanthine (MP Biomedicals, Santa Ana, CA, USA; final concentration 13.6 μg/mL) and 40% horse serum, respectively. GIT medium complemented with 40% horse serum was used as a growth medium for the USDA strain of B. caballi cultured in horse RBCs. To ensure free-bacterial contamination, amphotericin B (0.15 μg/mL) (Sigma-Aldrich), streptomycin (60 U/mL) and penicillin G (60 U/mL) were added to all medium.
(§2) The Babesia fluorescent assay was carried out on the in vitro culture as previously reported elsewhere to assess the growth of the inhibitory effectiveness of ATR and the combination treatment with DA, CF, and AV. Briefly, in three separate trials, using two-fold dilution, different concentrations of ATR, DA, CF, and AV were prepared in the culture medium and added in 96-well plates in triplicate with 1% parasitemia for T. equi, B. divergens and B. caballi at 5% HCT, while for B. bigemina and B. bovis using 2.5% HCT. The drug combined efficacy was conducted at the same time with the single-treatment assay in accordance with the Chou–Talalay method. […] On day four of culture, an aliquot (100 µL) of lysis buffer mixed with 0.2μL/mL SG1 was added per well; subsequently, it was covered with aluminum foil to prevent exposure to light. After incubation for 6-h at 37 °C, fluorescence readings were acquired on a spectrofluorimeter (Fluoroskan Ascent, Thermo Fisher Scientific, Oceanside, CA, USA) with a 485 nm excitation wavelength and a 518 nm emission wavelength.
(§3) The IC50 values of ATR, DA, CF, and AV were established from the in vitro growth inhibition by nonlinear regression curve fit on a GraphPad Prism (GraphPad Software Inc., San Diego, CA, USA). […] The significant variations (p < 0.05) among group mean values on parasitemia and one-way ANOVA Tukey’s test in GraphPad Prism version 5.0 was used to analyze hematology profiles in mice infected with B. microti.

The subject of test [3] is T. equi. The description is as above. In kind it is cell-based. As to conditions: 96 h, 4 days culture, mean of triplicate experiments. The method, then:
as §1, §2, §3

Test [4] deals with B. divergens. The description is as above. Format: cell-based. As to conditions: 96 h, 4 days culture, mean of triplicate experiments. The method, then:
as §1, §2, §3

The test system of test [5] is B. bigemina. Described as above. In kind it is cell-based. The note with it: 96 h, 4 days culture, mean of triplicate experiments. The method, then: as §1, §2, §3
Test [6] deals with NIH/3T3 cells. The experiment in a line: Cytotoxicity assay (CCK-8 cell viability). Format: cell-based, mouse. As to the method: (§4) Cultures of human foreskin fibroblast (HFF; HFF-1 ATCC® SCRC-1041™), Madin–Darby bovine kidney (MDBK; ECACC) and mouse embryonic fibroblast (NIH/3T3; ATCC® CRL-1658™) cells were retrieved from −80 °C stock and cultured continuously at 37 °C under atmosphere 5% CO2 in our laboratory. The NIH/3T3 and HFFs cells were maintained in Dulbecco Modified Eagle’s Medium (DMEM; Gibco, Grand Island, NY, USA), while MDBK cell line grown in Minimum Essential Medium Eagle (MEM; Gibco). Each medium was treated with 0.5% penicillin/streptomycin (Gibco), 10% inactivated fetal bovine serum and 2 mM glutamine. Every 72 to 96 h, the medium was replaced, and once 80% confluence was reached, the cell collection was performed by sub-culture protocol. To confirm the absence of mycoplasma contamination, 4,6-diamidino-2-phenylindole dihydrochloride stain (Sigma-Aldrich) was used.
(§5) The cell viability test was conducted in a 96-well plate as described elsewhere. Briefly, an aliquot of (100 µL) cells was implanted at a concentration of 5 × 10^4 cells/mL in DMEM or MEM with fetal bovine serum and incubated overnight under atmosphere 5% CO2 at 37 °C for attachment. Using two-fold dilutions, aliquots (10 µL) of drugs were added in triplicate per well to attain final concentrations of 50 to 1000 µM and further incubated for 24 h. The positive control wells containing cells mixed with the medium in 0.4% DMSO, whereas the negative control wells containing culture medium only. After a 24-h incubation, Cell Counting Kits-8 (CCK-8, 10 µL) was added to each well and then plate incubation was conducted for an additional 3 h and a microplate reader was used to assess the absorbance at 450 nm.

The subject of test [7] is HFFs. The test can be described thus: Cytotoxicity assay (CCK-8 cell viability). In kind it is cell-based, human. As to the method: as §4, §5
Test [8] relates to MDBK cells. The test can be described thus: Cytotoxicity assay (CCK-8 cell viability). Format: cell-based, bovine. The method, then:
as §4, §5

As to `CO[C@H]1/C=C\C=C(/C)C(=O)NC2=CC(=O)C(NCCN(C)C)=C(C[C@@H](C)C[C@H](OC)[C@H](O)[C@@H](C)/C=C(\C)[C@@H]1OC(N)=O)C2=O` [17-DMAG], in test [1], the chemotherapeutic effect is 89%.

A word on the IC50: it is the concentration at which inhibition is half-maximal. For the molecule `CC(C)/N=c1\cc2n(-c3ccc(Cl)cc3)c3ccccc3nc-2cc1Nc1ccc(Cl)cc1` [CF, clofazimine], the IC50 in test [2] was 8.24 ± 1.7 µM; in test [3], 2.88 ± 0.9 µM; in test [4], 13.8 ± 4.3 µM; in test [5] it was 5.73 ± 1.9 µM. Also, the “Selective Index NIH/3T3” value in test [6] (EC50 NIH/3T3 / IC50 B. bigemina) is given as “˃17.5”; in test [6] (EC50 NIH/3T3 / IC50 B. bovis), “˃12.1”; in test [6] (EC50 NIH/3T3 / IC50 B. caballi), “˃12.6”; in test [6] (EC50 NIH/3T3 / IC50 B. divergens) it was “˃7.2”; in test [6] (EC50 NIH/3T3 / IC50 T. equi), “˃34.7”. The EC50 in test [6] (Mus musculus, NIH3T3, NIH/3T3 cells, 24 h, CCK-8, read-out: EC50 NIH/3T3) is more than 100 µM; in test [7] (Homo sapiens, HFFs, 24 h, CCK-8), more than 100 µM; in test [8] (Bos taurus, MDBK cells, 24 h, CCK-8), 34.7 ± 3.4 µM. Besides, the “Selective Index HFFs” value in test [7] (EC50 HFFs / IC50 B. bigemina) was “˃17.5”; in test [7] (EC50 HFFs / IC50 B. bovis) it was “˃12.1”; in test [7] (EC50 HFFs / IC50 B. caballi), “˃12.6”; in test [7] (EC50 HFFs / IC50 B. divergens), “˃7.2”; in test [7] (EC50 HFFs / IC50 T. equi), “˃34.7”. Further, the “Selective Index MDBK” value in test [8] (EC50 MDBK / IC50 B. bigemina) turned out to be 6.1; in test [8] (EC50 MDBK / IC50 B. bovis), 4.2; in test [8] (EC50 MDBK / IC50 B. caballi), 4.4; in test [8] (EC50 MDBK / IC50 B. divergens), 2.5; in test [8] (EC50 MDBK / IC50 T. equi) it was 12.1.

Turning to `C=CCS[S+]([O-])CC=C` (stereo not drawn) [allicin], the chemotherapeutic effect in test [1] was 58.3%.

For the molecule `O=c1oc2c(O)c(O)cc3c(=O)oc4c(O)c(O)cc1c4c23` [ellagic acid], the chemotherapeutic effect in test [1] is 49%.

`CCn1cc(C(=O)O)c(=O)c2cc(F)c(N3CCNCC3)nc21` [enoxacin]: the chemotherapeutic effect in test [1] is recorded as 34%.

With `COc1cc2c[n+](C)c3c4cc5c(cc4ccc3c2cc1OC)OCO5` [nitidine chloride], the chemotherapeutic effect in test [1] is reported as 91%.

With `CCn1cc(C(=O)O)c(=O)c2cc(F)c(N3CCNCC3)cc21` [norfloxacin], in test [1], the chemotherapeutic effect was 31%.

For the molecule `CC1COc2c(N3CCN(C)CC3)c(F)cc3c(=O)c(C(=O)O)cn1c23` (stereo not drawn) [ofloxacin], in test [1], the chemotherapeutic effect is listed as 49%.

Consider `CC1=CC(=O)C(C(C)C)=CC1=O` [thymoquinone], for which the chemotherapeutic effect in test [1] is reported as 37%.

The record behind these values is paper PMC7167990, “Therapeutic Effects of Atranorin towards the Proliferation of Babesia and Theileria Parasites” (Pathogens, 2020).
